Results reported in ChEMBL document CHEMBL3045539, “Synthesis, DNA affinity, and antimicrobial activity of 4-substituted phenyl-2,2-bichalcophenes and aza-analogues” (Med Chem Res, 2012).
In brackets after ≈: the same amount, converted by molar mass. Activity calls are given as the source filed them. No cut-off for these calls is given here.

How the values were obtained:
Staphylococcus aureus [1] = assay: Antimicrobial activity against Staphylococcus aureus at 100 ug after 24 hr by cup diffusion technique; format: functional; conditions: read-out: DIZ
Saccharomyces cerevisiae [2] = assay: Antimicrobial activity against Saccharomyces cerevisiae at 100 ug after 24 hr by cup diffusion technique; format: functional; conditions: read-out: DIZ
Staphylococcus aureus [3] = assay: Antimicrobial activity against Staphylococcus aureus after 24 hr by CLSI liquid dilution method; format: functional
Pseudomonas aeruginosa [4] = assay: Antimicrobial activity against Pseudomonas aeruginosa after 24 hr by CLSI liquid dilution method; format: functional
Albumin = Albumin (Bos taurus, UniProt P02769); assay: Induction of Bos taurus (bovine) serum albumin degradation after 1 hr by SDS-PAGE analysis; conditions: cattle
Albumin, sequence (P02769 whole entry): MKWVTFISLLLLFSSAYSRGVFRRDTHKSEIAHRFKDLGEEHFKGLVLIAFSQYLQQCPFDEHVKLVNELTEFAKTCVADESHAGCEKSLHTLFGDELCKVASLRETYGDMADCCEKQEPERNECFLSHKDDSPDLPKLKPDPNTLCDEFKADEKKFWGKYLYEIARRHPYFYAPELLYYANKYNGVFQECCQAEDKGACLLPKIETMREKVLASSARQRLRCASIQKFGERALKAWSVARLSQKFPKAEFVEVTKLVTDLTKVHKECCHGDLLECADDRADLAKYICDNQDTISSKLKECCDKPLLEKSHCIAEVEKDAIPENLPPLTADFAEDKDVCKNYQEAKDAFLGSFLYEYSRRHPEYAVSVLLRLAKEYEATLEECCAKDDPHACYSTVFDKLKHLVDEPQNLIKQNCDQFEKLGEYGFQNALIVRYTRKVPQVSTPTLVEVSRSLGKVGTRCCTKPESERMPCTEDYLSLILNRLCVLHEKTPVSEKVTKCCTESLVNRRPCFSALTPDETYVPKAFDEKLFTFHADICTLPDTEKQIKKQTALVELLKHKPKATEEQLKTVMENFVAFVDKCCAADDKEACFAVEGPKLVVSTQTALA

Escherichia coli [5] = assay: Antimicrobial activity against Escherichia coli after 24 hr by CLSI liquid dilution method; format: functional
Escherichia coli [6] = assay: Antimicrobial activity against Escherichia coli at 100 ug after 24 hr by cup diffusion technique; format: functional; conditions: read-out: DIZ
[7] = Antioxidant activity assessed as SOD-like activity measuring inhibition of superoxide radical production at 50 ug after 30 min by NBT reduction assay; format: functional
Escherichia coli [8] = assay: Induction of Escherichia coli AB1157 DNA degradation after 1 hr by agarose gel electrophoresis
Bacillus subtilis [9] = assay: Antimicrobial activity against Bacillus subtilis after 24 hr by CLSI liquid dilution method; format: functional
Pseudomonas aeruginosa [10] = assay: Antimicrobial activity against Pseudomonas aeruginosa after 24 hr by cup diffusion technique; format: functional
Bacillus subtilis [11] = assay: Antimicrobial activity against Bacillus subtilis at 100 ug after 24 hr by cup diffusion technique; format: functional; conditions: read-out: DIZ
Saccharomyces cerevisiae [12] = assay: Antimicrobial activity against Saccharomyces cerevisiae after 24 hr by CLSI liquid dilution method; format: functional
[13] = Antioxidant activity assessed as DPPH scavenging activity at 50 ug after 30 min by spectrophotometry; format: functional

Compound	MIC (Staphylococcus aureus [3])	MIC (Pseudomonas aeruginosa [4])	Activity (Albumin)	MIC (Escherichia coli [5])	Activity (Escherichia coli [8])	MIC (Bacillus subtilis [9])	MIC (Saccharomyces cerevisiae [12])	zone of inhibition at 100 µg/disc (Staphylococcus aureus [1])	zone of inhibition at 100 µg/disc (Saccharomyces cerevisiae [2])	zone of inhibition at 100 µg/disc (Escherichia coli [6])	inhibition [7]	diameter of the inhibition zone (DIZ) (Pseudomonas aeruginosa [10])	zone of inhibition at 100 µg/disc (Bacillus subtilis [11])	Activity [13]
N=C(N)c1ccc(-c2ccc(-c3ccco3)o2)cc1 [4-(2,2'-BIFURAN-5-YL)BENZAMIDINE]	20 µg/mL (≈ 79.3 µM)	15 µg/mL (≈ 59.5 µM)	Active	20 µg/mL (≈ 79.3 µM)	Active	15 µg/mL (≈ 59.5 µM)	15 µg/mL (≈ 59.5 µM)	8 mm	11 mm	6 mm	39.7%	10 mm	9 mm	
N#Cc1ccc(-c2ccc(-c3cccs3)s2)cc1 [4-(2,2'-BITHIOPHEN-5-YL)BENZONITRILE]	20 µg/mL (≈ 74.8 µM)	10 µg/mL (≈ 37.4 µM)	Active	15 µg/mL (≈ 56.1 µM)	Active	20 µg/mL (≈ 74.8 µM)	10 µg/mL (≈ 37.4 µM)	9 mm	13 mm	10 mm	57.8%	12 mm	12 mm	61.8%
N#Cc1ccc(-c2ccc(-c3cccs3)s2)nc1 [6-(2,2'-BITHIOPHEN-5-YL)NICOTINONITRILE]	15 µg/mL (≈ 55.9 µM)	7.5 µg/mL (≈ 27.9 µM)	Not Active	15 µg/mL (≈ 55.9 µM)	Active	10 µg/mL (≈ 37.3 µM)	2.5 µg/mL (≈ 9.32 µM)	13 mm	19 mm	13 mm	52.9%	15 mm	12 mm	55.4%
N=C(N)c1ccc(-c2ccc(-c3cccs3)s2)nc1 [6-(2,2'-BITHIOPHENE-5-YL)NICOTINAMIDINE]	15 µg/mL (≈ 52.6 µM)	15 µg/mL (≈ 52.6 µM)	Active	10 µg/mL (≈ 35 µM)	Active	15 µg/mL (≈ 52.6 µM)	5 µg/mL (≈ 17.5 µM)	10 mm	14 mm	10 mm	51.4%	9 mm	7 mm	58.2%
N#Cc1ccc(-c2ccc(-c3cccs3)o2)nc1 [6-[5-(THIOPHEN-2-YL)FURAN-2-YL]NICOTINONITRILE]	15 µg/mL (≈ 59.5 µM)	10 µg/mL (≈ 39.6 µM)	Active	10 µg/mL (≈ 39.6 µM)	Active	15 µg/mL (≈ 59.5 µM)	10 µg/mL (≈ 39.6 µM)	12 mm	16 mm	14 mm	40.3%	16 mm	13 mm	
CC1(C)S[C@@H]2[C@H](NC(=O)[C@H](N)c3ccccc3)C(=O)N2[C@H]1C(=O)O [AMPICILLIN]	10 µg/mL (≈ 28.6 µM)	15 µg/mL (≈ 42.9 µM)		10 µg/mL (≈ 28.6 µM)		15 µg/mL (≈ 42.9 µM)	7.5 µg/mL (≈ 21.5 µM)	12 mm	17 mm	16 mm		12 mm	18 mm	

Further lines, with some results ahead:

MIC (Staphylococcus aureus [3])	MIC (Pseudomonas aeruginosa [4])	Activity (Albumin)	MIC (Escherichia coli [5])	Activity (Escherichia coli [8])	MIC (Bacillus subtilis [9])	MIC (Saccharomyces cerevisiae [12])	Compound	zone of inhibition at 100 µg/disc (Staphylococcus aureus [1])	zone of inhibition at 100 µg/disc (Saccharomyces cerevisiae [2])	zone of inhibition at 100 µg/disc (Escherichia coli [6])	inhibition [7]	diameter of the inhibition zone (DIZ) (Pseudomonas aeruginosa [10])	zone of inhibition at 100 µg/disc (Bacillus subtilis [11])	Activity [13]
2 µg/mL (≈ 8.5 µM)	5 µg/mL (≈ 21.3 µM)	Active	2.5 µg/mL (≈ 10.6 µM)	Active	2.5 µg/mL (≈ 10.6 µM)	2.5 µg/mL (≈ 10.6 µM)	N#Cc1ccc(-c2ccc(-c3ccco3)o2)cc1 [4-(2,2'-BIFURAN-5-YL)BENZONITRILE]	18 mm	16 mm	18 mm	42.4%	16 mm	19 mm	
15 µg/mL (≈ 52.7 µM)	20 µg/mL (≈ 70.3 µM)	Not Active	10 µg/mL (≈ 35.2 µM)	Active	15 µg/mL (≈ 52.7 µM)	10 µg/mL (≈ 35.2 µM)	N=C(N)c1ccc(-c2ccc(-c3cccs3)s2)cc1 [4-(2,2'-BITHIOPHENE-5-YL)BENZAMIDINE]	8 mm	12 mm	11 mm	48.1%	8 mm	9 mm	51.9%
10 µg/mL (≈ 37.3 µM)	15 µg/mL (≈ 55.9 µM)	Active	15 µg/mL (≈ 55.9 µM)		10 µg/mL (≈ 37.3 µM)	7.5 µg/mL (≈ 27.9 µM)	N=C(N)c1ccc(-c2ccc(-c3cccs3)o2)cc1 [4-[5-(THIOPHEN-2-YL)FURAN-2-YL]BENZAMIDINE]	10 mm	12 mm	9 mm	53.7%	9 mm	11 mm	57.7%
15 µg/mL (≈ 59.7 µM)	15 µg/mL (≈ 59.7 µM)	Not Active	15 µg/mL (≈ 59.7 µM)	Active	10 µg/mL (≈ 39.8 µM)	10 µg/mL (≈ 39.8 µM)	N#Cc1ccc(-c2ccc(-c3cccs3)o2)cc1 [4-[5-(THIOPHEN-2-YL)FURAN-2-YL]BENZONITRILE]	12 mm	15 mm	12 mm	46.9%	16 mm	14 mm	53.1%
15 µg/mL (≈ 59.2 µM)	15 µg/mL (≈ 59.2 µM)	Not Active	15 µg/mL (≈ 59.2 µM)	Active	15 µg/mL (≈ 59.2 µM)	10 µg/mL (≈ 39.5 µM)	N=C(N)c1ccc(-c2ccc(-c3ccco3)o2)nc1 [6-(2,2'-BIFURAN-5-YL)NICOTINAMIDINE]	6 mm	12 mm	9 mm	44.6%	7 mm	7 mm	
2.5 µg/mL (≈ 10.6 µM)	5 µg/mL (≈ 21.2 µM)	Not Active	7.5 µg/mL (≈ 31.7 µM)	Active	5 µg/mL (≈ 21.2 µM)	2 µg/mL (≈ 8.47 µM)	N#Cc1ccc(-c2ccc(-c3ccco3)o2)nc1 [6-(2,2'-BIFURAN-5-YL)NICOTINONITRILE]	17 mm	20 mm	14 mm	34.9%	16 mm	16 mm	
10 µg/mL (≈ 37.1 µM)	20 µg/mL (≈ 74.3 µM)	Active	15 µg/mL (≈ 55.7 µM)	Active	15 µg/mL (≈ 55.7 µM)	15 µg/mL (≈ 55.7 µM)	N=C(N)c1ccc(-c2ccc(-c3cccs3)o2)nc1 [6-[5-(THIOPHEN-2-YL)FURAN-2-YL]NICOTINAMIDINE]	11 mm	10 mm	8 mm	44.2%	7 mm	5 mm	
